Laboratory results taken from US20250326738A1, “MALT1 Modulators and Uses Thereof” (Rarefied Biosciences, Inc., priority 2022, published 2025).

Experiments:
Jurkat IL-2 = Jurkat IL-2 assay (IL-2 inhibition by ELISA after anti-CD3/28/2 stimulation); format: cell-based; settings: Homo sapiens; Jurkat clone E6.1, IL-2 in supernatant, 30 min pre-incubation, anti-CD3/28/2 stimulation 24 hours; mean if tested more than once
Description: Inhibition was determined in a cell-based assay using Jurkat (ATCC, clone E6.1), an immortalized T-cell line, exposed to a dose response of compound and assessed for viability, and IL-2 inhibition by ELISA. Cells were cultured in RPMI/10% FBS (Invitrogen 11875093, Atlanta Biologicals S12450H), maintained below 3E6/mL and only used in assays while below passage 25. Compounds were stamped by ECHO onto 384w plates (PerkinElmer Culturplate, 6007680). The cells were plated in fresh media on top of compound and incubated for 30 minutes before stimulation with soluble anti-CD3/28/2 (Stemcell, 10970) for 24 hours. Supernatant was collected and assessed for IL-2 (MSD, 384w, L21SA-1). To assess viability of cells treated with compound, cells were lysed with CTG reagent (Promega, G7570), and measured by luminometer. […] IC50s calculated using 4-parameter fit in GraphPad Prism.
“N/A” indicates not tested. For a compound that was tested in more than one experiment, the result shown represents the mean value.

full length MALT1 = target: T1, full length MALT1 (Homo sapiens, UniProt Q9UDY8); assay: MALT1 biochemical assay (fluorogenic peptide substrate cleavage); settings: full length MALT1, 15 nM enzyme, 30 μM peptide substrate, 30 min pre-incubation, 60 min reaction; mean if tested more than once
T1 construct: measuring enzymatic activity of full length MALT1 at varying concentrations of compound
T1 sequence (Q9UDY8 1-824): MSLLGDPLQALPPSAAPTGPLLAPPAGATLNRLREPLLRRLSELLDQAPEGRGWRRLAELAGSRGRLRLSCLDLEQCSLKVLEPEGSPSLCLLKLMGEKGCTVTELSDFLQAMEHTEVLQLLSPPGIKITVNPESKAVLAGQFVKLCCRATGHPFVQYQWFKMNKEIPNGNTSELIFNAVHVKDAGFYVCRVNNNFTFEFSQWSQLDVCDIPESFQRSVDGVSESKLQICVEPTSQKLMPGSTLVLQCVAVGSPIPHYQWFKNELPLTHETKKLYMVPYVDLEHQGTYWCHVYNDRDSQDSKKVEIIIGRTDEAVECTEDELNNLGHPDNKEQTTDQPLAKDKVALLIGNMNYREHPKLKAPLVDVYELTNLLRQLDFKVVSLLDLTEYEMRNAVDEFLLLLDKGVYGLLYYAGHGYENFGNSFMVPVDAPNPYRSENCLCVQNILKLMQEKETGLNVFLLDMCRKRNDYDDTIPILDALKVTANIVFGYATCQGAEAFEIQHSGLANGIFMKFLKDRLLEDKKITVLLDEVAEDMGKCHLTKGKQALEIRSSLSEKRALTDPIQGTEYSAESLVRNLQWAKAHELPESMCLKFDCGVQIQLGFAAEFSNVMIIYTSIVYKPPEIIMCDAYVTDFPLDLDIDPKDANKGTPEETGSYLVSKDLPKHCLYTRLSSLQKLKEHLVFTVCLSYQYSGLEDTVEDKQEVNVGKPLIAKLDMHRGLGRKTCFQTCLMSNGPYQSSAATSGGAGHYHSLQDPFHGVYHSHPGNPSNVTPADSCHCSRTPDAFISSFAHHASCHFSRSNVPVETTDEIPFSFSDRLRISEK
Description: Inhibitor potency was evaluated by measuring enzymatic activity of full length MALT1 at varying concentrations of compound. The enzymatic assay consists of a single substrate reaction that monitors the release of a fluorescent dye upon cleavage of the peptide substrate. […] The assay buffer consists of 50 mM Hepes, pH 7.5, 0.8 M sodium citrate, 1 mM DTT, 0.004% tween-20, and 0.005% bovine serum albumin (BSA). […] The reaction was quenched after 60 minutes with the addition of iodoacetate at a final concentration of 10 mM. Total fluorescence was measured using an Envision (PerkinElmer) with fluorescence excitation at 485 nm and emission at 520 nm.
The reaction was initiated with the addition of 10 μL of peptide substrate. […] IC50 values were calculated by fitting the concentration-response curves to a four-parameter logistic equation in GraphPad Prism.
“N/A” indicates not tested.

Structure (SMILES) | IC50 (Jurkat IL-2) | IC50 (full length MALT1)
Cc1ccccc1-n1ncc(Nc2ccc([C@H](N(C)C(=O)C3CCS(=O)(=O)CC3)C(F)(F)F)cc2)c1C(F)(F)F [Compound 1.3] | 100 to 1000 nM | > 1000 nM
CN(C(=O)C1CCS(=O)(=O)CC1)[C@@H](c1ccc(Nc2cnn(C)c2-c2ccccc2)cc1)C(F)(F)F [Compound 1.4] | > 1000 nM | > 1000 nM
CC(C)c1c(Nc2ccc([C@H](N(C)C(=O)C3CCS(=O)(=O)CC3)C(F)(F)F)cc2)cnn1C [Compound 1.5] | > 1000 nM | > 1000 nM
CN(C(=O)C1CCS(=O)(=O)CC1)[C@@H](c1ccc(Nc2cnn(C3CC3)c2C(F)(F)F)cc1)C(F)(F)F [Compound 1.7] | 100 to 1000 nM | 100 to 1000 nM
CC(C)c1c(Nc2ccc([C@H](N(C)C(=O)C3CCS(=O)(=O)CC3)C(F)(F)F)cc2)cnn1-c1ccccc1 [Compound 1.8] | 100 to 1000 nM | 100 to 1000 nM
CC(C)n1ncc(Nc2ccc([C@H](N(C)C(=O)C3CCS(=O)(=O)CC3)C(F)(F)F)cc2)c1C(F)(F)F [Compound 1.9] | 100 to 1000 nM | 100 to 1000 nM
CN(C(=O)C1CCS(=O)(=O)CC1)[C@@H](c1ccc(Nc2cnn(CC(C)(C)C)c2C(F)(F)F)cc1)C(F)(F)F [Compound 1.12] | > 1000 nM | > 1000 nM
CN(C(=O)C1CCS(=O)(=O)CC1)[C@@H](c1ccc(Nc2cnn(-c3ccncc3)c2C(F)(F)F)cc1)C(F)(F)F [Compound 1.14] | < 100 nM | 100 to 1000 nM
CN(C(=O)C1CCS(=O)(=O)CC1)[C@@H](c1ccc(Nc2cnn(-c3ccccc3C#N)c2C(F)(F)F)cc1)C(F)(F)F [Compound 1.16] | 100 to 1000 nM | 100 to 1000 nM
CN(C(=O)C1CCS(=O)(=O)CC1)[C@@H](c1ccc(Nc2cnn(-c3cccc(C#N)c3)c2C(F)(F)F)cc1)C(F)(F)F [Compound 1.17] | < 100 nM | < 100 nM
CN(C(=O)C1CCS(=O)(=O)CC1)[C@@H](c1ccc(Nc2cnn(-c3cnccn3)c2C(F)(F)F)cc1)C(F)(F)F [Compound 1.19] | < 100 nM | 100 to 1000 nM
CN(C(=O)C1CCS(=O)(=O)CC1)[C@@H](c1ccc(Nc2cnn(-c3ccncn3)c2C(F)(F)F)cc1)C(F)(F)F [Compound 1.20] | < 100 nM | < 100 nM
CN(C(=O)C1CCS(=O)(=O)CC1)[C@@H](c1ccc(Nc2cnn(-c3cccnn3)c2C(F)(F)F)cc1)C(F)(F)F [Compound 1.21] | < 100 nM | < 100 nM
CN(C(=O)C1CCS(=O)(=O)CC1)[C@@H](c1ccc(Nc2cnn(-c3ccnnc3)c2C(F)(F)F)cc1)C(F)(F)F [Compound 1.22] | 100 to 1000 nM | < 100 nM
CC(=O)N1CCC(C(=O)N(C)[C@@H](c2ccc(Nc3cnn(-c4ccccc4)c3C(F)(F)F)cc2)C(F)(F)F)CC1 [Compound 1.25] | < 100 nM | 100 to 1000 nM
CC(=O)N1CCC(C(=O)N(C)[C@@H](c2ccc(Nc3cnn(-c4ccccc4)c3C(C)C)cc2)C(F)(F)F)CC1 [Compound 1.26] | 100 to 1000 nM | 100 to 1000 nM
CC(=O)N1CCC(C(=O)N(C)[C@@H](c2ccc(Nc3cnn(-c4cccc(C#N)c4)c3C(F)(F)F)cc2)C(F)(F)F)CC1 [Compound 1.28] | < 100 nM | < 100 nM
CC(=O)N1CCC(C(=O)N(C)[C@@H](c2ccc(Nc3cnn(-c4ccccn4)c3C(F)(F)F)cc2)C(F)(F)F)CC1 [Compound 1.29] | < 100 nM | 100 to 1000 nM
CO[C@@H](C)c1c(Nc2ccc([C@H](N(C)C(=O)C3CCN(C(C)=O)CC3)C(F)(F)F)cc2)cnn1-c1ccncc1 [Compound 1.33] | 100 to 1000 nM | 100 to 1000 nM
CC(=O)N1CC(C(=O)N(C)[C@@H](c2ccc(Nc3cnn(-c4cccc(C#N)c4)c3C(F)(F)F)cc2)C(F)(F)F)C1 [Compound 1.35] | < 100 nM | 100 to 1000 nM
CC(=O)N1CC(C(=O)N(C)[C@@H](c2ccc(Nc3cnn(-c4cccnc4)c3C(F)(F)F)cc2)C(F)(F)F)C1 [Compound 1.36] | < 100 nM | < 100 nM

Further lines, results first:

IC50 (Jurkat IL-2) | IC50 (full length MALT1) | Structure (SMILES)
> 1000 nM | > 1000 nM | CN(C(=O)C1CCS(=O)(=O)CC1)[C@@H](c1ccc(Nc2cnn(C)c2C(F)(F)F)cc1)C(F)(F)F [Compound 1.1, (S)—N-methyl-N-(2,2,2-trifluoro-1-(4-((1-methyl-5-(trifluoromethyl)-1H-pyrazol-4-yl)amino)phenyl)ethyl)tetrahydro-2H-thiopyran-4-carboxamide 1,1-dioxide]
100 to 1000 nM | 100 to 1000 nM | CN(C(=O)C1CCS(=O)(=O)CC1)[C@@H](c1ccc(Nc2cnn(-c3cccc4ncccc34)c2C(F)(F)F)cc1)C(F)(F)F [Compound 1.2]
100 to 1000 nM | 100 to 1000 nM | CN(C(=O)C1CCS(=O)(=O)CC1)[C@@H](c1ccc(Nc2cnn(-c3ccccc3)c2C(F)(F)F)cc1)C(F)(F)F [Compound 1.6]
> 1000 nM | > 1000 nM | CN(C(=O)C1CCS(=O)(=O)CC1)[C@@H](c1ccc(Nc2cnn(CC(C)(C)O)c2C(F)(F)F)cc1)C(F)(F)F [Compound 1.10]
> 1000 nM | > 1000 nM | COCC(C)n1ncc(Nc2ccc([C@H](N(C)C(=O)C3CCS(=O)(=O)CC3)C(F)(F)F)cc2)c1C(F)(F)F (stereo partly drawn) [Compound 1.11]
< 100 nM | < 100 nM | CN(C(=O)C1CCS(=O)(=O)CC1)[C@@H](c1ccc(Nc2cnn(-c3cccnc3)c2C(F)(F)F)cc1)C(F)(F)F [Compound 1.13]
< 100 nM | < 100 nM | CN(C(=O)C1CCS(=O)(=O)CC1)[C@@H](c1ccc(Nc2cnn(-c3ccccn3)c2C(F)(F)F)cc1)C(F)(F)F [Compound 1.15]
> 1000 nM | > 1000 nM | CN(C(=O)C1CCS(=O)(=O)CC1)[C@@H](c1ccc(Nc2cnn(-c3ncccn3)c2C(F)(F)F)cc1)C(F)(F)F [Compound 1.18]
100 to 1000 nM | 100 to 1000 nM | COC(C)c1c(Nc2ccc([C@H](N(C)C(=O)C3CCS(=O)(=O)CC3)C(F)(F)F)cc2)cnn1-c1cccnc1 (stereo partly drawn) [Compound 1.23]
100 to 1000 nM | < 100 nM | CC(O)c1c(Nc2ccc([C@H](N(C)C(=O)C3CCS(=O)(=O)CC3)C(F)(F)F)cc2)cnn1-c1cccnc1 (stereo partly drawn) [Compound 1.24]
< 100 nM | < 100 nM | CC(=O)N1CCC(C(=O)N(C)[C@@H](c2ccc(Nc3cnn(-c4cccnc4)c3C(F)(F)F)cc2)C(F)(F)F)CC1 [Compound 1.27]
100 to 1000 nM | 100 to 1000 nM | CO[C@@H](C)c1c(Nc2ccc([C@H](N(C)C(=O)C3CCN(C(C)=O)CC3)C(F)(F)F)cc2)cnn1-c1ccccc1 [Compound 1.31]
100 to 1000 nM | < 100 nM | CO[C@@H](C)c1c(Nc2ccc([C@H](N(C)C(=O)C3CCN(C(C)=O)CC3)C(F)(F)F)cc2)cnn1-c1ccccn1 [Compound 1.32]
100 to 1000 nM | 100 to 1000 nM | CO[C@@H](C)c1c(Nc2ccc([C@H](N(C)C(=O)C3CCN(C(C)=O)CC3)C(F)(F)F)cc2)cnn1-c1cccnc1 [Compound 1.34]
< 100 nM | < 100 nM | CC(=O)N1CC(C(=O)N(C)[C@@H](c2ccc(Nc3cnn(-c4ccccn4)c3C(F)(F)F)cc2)C(F)(F)F)C1 [Compound 1.37]
100 to 1000 nM | 100 to 1000 nM | CO[C@@H](C)c1c(Nc2ccc([C@H](N(C)C(=O)C3CN(C(C)=O)C3)C(F)(F)F)cc2)cnn1-c1ccccc1 [Compound 1.38]
100 to 1000 nM | – | CC(=O)N1CC(C(=O)N(C)[C@@H](c2ccc(Nc3cnn(-c4cccnc4)c3C3CC3)cc2)C(F)(F)F)C1 [Compound 1.41]
